Measured values as given in US11427567B2, “Imidazolyl pyrimidinylamine compounds as CDK2 inhibitors” (Incyte Corporation, priority 2019, dated 2022).

target: CDK2/Cyclin E1 (Homo sapiens (Human), UniProt P24941); test: CDK2/Cyclin E1 HTRF enzyme activity assay (Example A); format: biochemical; conditions: 1 mM ATP
Experimental: Assays were conducted in white 384-well polystyrene plates in a final reaction volume of 8 μL. […] HTRF signals were read after 1 hour at room temperature on a PHERAstar FS plate reader (BMG Labtech). Data was analyzed with IDBS XLFit and GraphPad Prism 5.0 software using a three or four parameter dose response curve to determine IC50 for each compound.

Row | Structure (SMILES) | IC50 [nM]
1 | COc1nccc(-n2cnc(-c3nc(N[C@H]4CCN(S(C)(=O)=O)C[C@H]4F)ncc3C(F)(F)F)c2)c1Cl [Example 300, 4-(1-(3-Chloro-2-methoxypyridin-4-yl)-1H-imidazol-4-yl)-N-((3R,4S)-3-fluoro-1-(methylsulfonyl)piperidin-4-yl)-5-(trifluoromethyl)pyrimidin-2-amine] | ≤ 50
2 | CN1CCN(Cc2ccc(-n3cnc(-c4nc(NC5CCN(S(C)(=O)=O)CC5)ncc4C(F)(F)F)c3)c(Cl)c2)C(=O)C1 [Example 451, 1-(3-Chloro-4-(4-(2-((1-(methylsulfonyl)piperidin-4-yl)amino)-5-(trifluoromethyl)pyrimidin-4-yl)-1H-imidazol-1-yl)benzyl)-4-methylpiperazin-2-one] | ≤ 50
3 | CS(=O)(=O)N1CC[C@H](Nc2ncc(C(F)(F)F)c(-c3cn(-c4ccc(CN5CCC5)cc4Cl)cn3)n2)[C@H](F)C1 [Example 184, 4-(1-(4-(Azetidin-1-ylmethyl)-2-chlorophenyl)-1H-imidazol-4-yl)-N-((3R,4S)-3-fluoro-1-(methylsulfonyl)piperidin-4-yl)-5-(trifluoromethyl)pyrimidin-2-amine] | ≤ 50
4 | CN1CCN(Cc2cc(F)c(-n3cnc(-c4nc(NC5CCN(S(C)(=O)=O)CC5)ncc4C(F)(F)F)c3)c(F)c2)CC1 [Example 352, 4-(1-(2,6-Difluoro-4-((4-methylpiperazin-1-yl)methyl)phenyl)-1H-imidazol-4-yl)-N-(1-(methylsulfonyl)piperidin-4-yl)-5-(trifluoromethyl)pyrimidin-2-amine] | ≤ 50
5 | Cc1nc(-c2nc(NC3CCN(S(C)(=O)=O)CC3)ncc2C(F)(F)F)cn1-c1ccc(N2CCN(C(C)C)CC2)cc1F [Example 105, 4-(1-(2-Fluoro-4-(4-isopropyl-piperazin-1-yl)-phenyl)-2-methyl-1H-imidazol-4-yl)-N-(1-(methyl-sulfonyl)piperidin-4-yl)-5-(trifluoro-methyl)pyrimidin-2-amine] | ≤ 50
6 | Cc1nc(-c2nc(NC3CCN(S(C)(=O)=O)CC3)ncc2C(F)(F)F)cn1-c1ccc(N2CCC(N3CCN(C)CC3)CC2)cc1F [Example 415, 4-(1-(2-Fluoro-4-(4-(4-methylpiperazin-1-yl)piperidin-1-yl)phenyl)-2-methyl-1H-imidazol-4-yl)-N-(1-(methylsulfonyl)piperidin-4-yl)-5-(trifluoromethyl)pyrimidin-2-amine] | ≤ 50
7 | CS(=O)(=O)N1CCC(Nc2ncc(C(F)(F)F)c(-c3cn(CC(F)(F)F)cn3)n2)CC1 [Example 23, N-(1-(Methylsulfonyl)piperidin-4-yl)-4-(1-(2,2,2-trifluoroethyl)-1H-imidazol-4-yl)-5-(trifluoromethyl)pyrimidin-2-amine] | ≤ 50
8 | CCN(C)CCOc1ccc(-n2cnc(-c3nc(NC4CCN(S(C)(=O)=O)CC4)ncc3C(F)(F)F)c2)c(C#N)n1 [Example 76, 6-(2-(Ethyl(methyl)amino)ethoxy)-3-(4-(2-((1-(methylsulfonyl)piperidin-4-yl)amino)-5-(trifluoromethyl)pyrimidin-4-yl)-1H-imidazol-1-yl)picolinonitrile] | ≤ 50
9 | CS(=O)(=O)N1CCC(Nc2ncc(C(F)(F)F)c(-c3cn(-c4cccnc4C(F)F)cn3)n2)CC1 [Example 37, 4-(1-(2-(Difluoromethyl)pyridin-3-yl)-1H-imidazol-4-yl)-N-(1-(methylsulfonyl)piperidin-4-yl)-5-(trifluoromethyl)pyrimidin-2-amine] | ≤ 50
10 | CC1(O)CN(Cc2cccc(-n3cnc(-c4nc(NC5CCN(S(C)(=O)=O)CC5)ncc4C(F)(F)F)c3)c2Cl)C1 [Example 362, 1-(2-Chloro-3-(4-(2-((1-(methylsulfonyl)piperidin-4-yl)amino)-5-(trifluoromethyl)pyrimi-din-4-yl)-1H-imidazol-yl)benzyl)-3-methylazetidin-3-ol] | ≤ 50
11 | CN(C)CCOc1ccc(-n2cnc(-c3nc(NC4CCN(S(C)(=O)=O)CC4)ncc3C(F)(F)F)c2)c(C#N)n1 [Example 40, 6-(2-(Dimethylamino)ethoxy)-3-(4-(2-((1-(methylsulfonyl)piperidin-4-yl)amino)-5-(trifluoromethyl)pyrimidin-4-yl)-1H-imidazol-1-yl)picolinonitrile] | ≤ 50
12 | Cc1nn(C)cc1-c1ccc(-n2cc(-c3nc(NC4CCN(S(C)(=O)=O)CC4)ncc3C(F)(F)F)nc2C)c(F)c1 [Example 127, 4-(1-(4-(1,3-Dimethyl-1H-pyrazol-4-yl)-2-fluorophenyl)-2-methyl-1H-imidazol-4-yl)-N-(1-(methylsulfonyl)piperidin-4-yl)-5-(trifluoromethyl)pyrimidin-2-amine] | ≤ 50
13 | CC(C)(O)Cn1cnc(-c2nc(N[C@H]3CCN(S(=O)(=O)C4CC4)C[C@H]3F)ncc2C(F)(F)F)c1 [Example 323, 1-(4-(2-(((3R,4S)-1-(Cyclopropylsulfonyl)-3-fluoropiperidin-4-yl)amino)-5-(trifluoromethyl)pyrimidin-4-yl)-1H-imidazol-1-yl)-2-methylpropan-2-ol] | ≤ 50
14 | Cc1nc(-c2nc(NC3CCN(S(C)(=O)=O)CC3)ncc2C(F)(F)F)cn1-c1ccc(CCN2CCC2)cc1F [Example 416, 4-(1-(4-(2-(Azetidin-1-yl)ethyl)-2-fluorophenyl)-2-methyl-1H-imidazol-4-yl)-N-(1-(methylsulfonyl)piperidin-4-yl)-5-(trifluoromethyl)pyrimidin-2-amine] | ≤ 50
15 | CCS(=O)(=O)N1CCC(Nc2ncc(C(F)(F)F)c(-c3cn(-c4ccc(C)nc4C#N)cn3)n2)CC1 [Example 87, 3-(4-(2-((1-(Ethylsulfonyl)piperidin-4-yl)amino)-5-(trifluoromethyl)pyrimidin-4-yl)-1H-imidazol-1-yl)-6-methylpicolinonitrile] | ≤ 50
16 | CNCc1ccc(-n2cnc(-c3nc(NC4CCN(S(C)(=O)=O)CC4)ncc3C(F)(F)F)c2)c(C#N)c1 [Example 249, 5-((Methylamino)methyl)-2-(4-(2-((1-(methylsulfonyl)piperidin-4-yl)amino)-5-(trifluoromethyl)pyrimidin-4-yl)-1H-imidazol-1-yl)benzonitrile] | ≤ 50
17 | CS(=O)(=O)N1CCC(Nc2ncc(C(F)(F)F)c(-c3cn(-c4ccc(CNCC(F)F)cc4Cl)cn3)n2)CC1 [Example 186, 4-(1-(2-Chloro-4-(((2,2-difluoroethyl)-amino)methyl)phenyl)-1H-imidazol-4-yl)-N-(1-(methylsulfonyl)-piperidin-4-yl)-5-(trifluoromethyl)-pyrimidin-2-amine] | ≤ 50
18 | Cc1nc(-c2nc(NC3CCN(S(C)(=O)=O)CC3)ncc2C(F)(F)F)cn1-c1ccc(C2CCN(C)CC2)cc1F [Example 161, 4-(1-(2-Fluoro-4-(1-methylpiperidin-4-yl)phenyl)-2-methyl-1H-imidazol-4-yl)-N-(1-(methyl-sulfonyl)piperidin-4-yl)-5-(trifluoro-methyl)pyrimidin-2-amine] | ≤ 50
19 | [2H]C([2H])([2H])NCc1cccc(-n2cnc(-c3nc(NC4CCN(S(C)(=O)=O)CC4)ncc3C(F)(F)F)c2)c1Cl [Example 462, 4-(1-(2-Chloro-3-(((methyl-d3)amino)methyl)phenyl)-1H-imidazol-4-yl)-N-(1-(methylsulfonyl)piperidin-4-yl)-5-(trifluoromethyl)pyrimidin-2-amine] | ≤ 50
20 | CC(C)(O)Cn1cnc(-c2nc(NC3CCN(S(C)(=O)=O)CC3)ncc2C(F)(F)F)c1 [Example 22, 2-Methyl-1-(4-(2-((1-(methylsulfonyl)piperidin-4-yl)amino)-5-(trifluoromethyl)pyrimidin-4-yl)-1H-imidazol-1-yl)propan-2-ol] | ≤ 50
21 | CCNCc1ccc(-n2cnc(-c3nc(N[C@H]4CCN(S(C)(=O)=O)C[C@H]4C)ncc3C(F)(F)F)c2)c(Cl)c1 [Example 218, 4-(1-(2-Chloro-4-((ethylamino)methyl)-phenyl)-1H-imidazol-4-yl)-N-((3R,4S)-3-methyl-1-(methyl-sulfonyl)piperidin-4-yl)-5-(trifluoro-methyl)-pyrimidin-2-amine] | ≤ 50
22 | CC(CN(C)C)Oc1ccc(-n2cnc(-c3nc(NC4CCN(S(C)(=O)=O)CC4)ncc3C(F)(F)F)c2)c(C(F)(F)F)n1 (centres unmarked) [Example 73, 4-(1-(6-((1-(Dimethylamino)propan-2-yl)oxy)-2-(trifluoromethyl)pyridin-3-yl)-1H-imidazol-4-yl)-N-(1-(methylsulfonyl)piperidin-4-yl)-5-(trifluoromethyl)pyrimidin-2-amine] | ≤ 50
23 | Cc1nc(-c2nc(NC3CCN(S(C)(=O)=O)CC3)ncc2C(F)(F)F)cn1-c1ccc(-c2cnnn2C)cc1F [Example 128, 4-(1-(2-Fluoro-4-(1-methyl-1H-1,2,3-triazol-5-yl)phenyl)-2-methyl-1H-imidazol-4-yl)-N-(1-(methylsulfonyl)piperidin-4-yl)-5-(trifluoromethyl)pyrimidin-2-amine] | ≤ 50
24 | CNCc1ccc(-n2cnc(-c3nc(NC4CCN(S(C)(=O)=O)CC4)ncc3Cl)c2)c(Cl)c1 [Example 227, 5-Chloro-4-(1-(2-chloro-4-((methyl-amino)methyl)-phenyl)-1H-imidazol-4-yl)-N-(1-(methyl-sulfonyl)piperidin-4-yl)pyrimidin-2-amine] | ≤ 50
25 | CS(=O)(=O)N1CCC(Nc2ncc(C(F)(F)F)c(-c3cn(-c4ccc(Cn5cnnn5)cc4Cl)cn3)n2)CC1 [Example 244, 4-(1-(4-((1H-Tetrazol-1-yl)methyl)-2-chlorophenyl)-1H-imidazol-4-yl)-N-(1-(methylsulfonyl)piperidin-4-yl)-5-(trifluoromethyl)pyrimidin-2-amine] | ≤ 50
26 | CS(=O)(=O)N1CCC(Nc2ncc(C(F)(F)F)c(-c3cn(-c4ccc(CN5C6COCC5C6)cc4Cl)cn3)n2)CC1 [Example 214, 4-(1-(4-((3-Oxa-6-azabicyclo[3.1.1]-heptan-6-yl)methyl)-2-chlorophenyl)-1H-imidazol-4-yl)-N-(1-(methylsulfonyl)-piperidin-4-yl)-5-(trifluoromethyl)-pyrimidin-2-amine] | ≤ 50
